From PMC10928712, “High Target Homology Does Not Guarantee Inhibition: Aminothiazoles Emerge as Inhibitors of Plasmodium falciparum” (ACS Infectious Diseases, 2024)
≈ marks a conversion by molar mass, not a printed value.

What was measured:
P. falciparum 3D7 [1] = assay: Method II growth-inhibition assay (PicoGreen, 3 days), 3D7; type: cell-based; conditions: Plasmodium falciparum; 3D7, method II; read-out: IC50 3D7-II
From the text: (§1) Fidock (Columbia University).

P. falciparum NF54 [2] = assay: Method II growth-inhibition assay (PicoGreen, 3 days), NF54; type: cell-based; conditions: Plasmodium falciparum; chloroquine-sensitive NF54, method II
From the text: as §1

P. falciparum 3D7 [3] = assay: Method III growth inhibition assay (HRP2-ELISA, 3 days), 3D7; type: cell-based, Plasmodium falciparum; conditions: Plasmodium falciparum
P. falciparum Dd2 = assay: Method III growth inhibition assay (HRP2-ELISA, 3 days), Dd2; type: cell-based, Plasmodium falciparum; conditions: Plasmodium falciparum, DD2, chloroquine-resistant Dd2, method III
P. falciparum 3D7 [4] = assay: IDP rescue assay, P. falciparum 3D7; type: cell-based; conditions: Plasmodium falciparum
Protocol: (§2) Fidock (Columbia University). […] P. falciparum cultures were treated as described in method II. For IDP (Isoprenoids.com) rescue experiments, 125 μM IDP was added to the appropriate wells for the duration of the experiment. The well-described DXR inhibitor FSM was used as a positive control. IC50 values were calculated by nonlinear regression analysis using GraphPad Prism software. All experiments were performed at least in triplicate, and data reported represent the mean ± SD.

P. falciparum NF54 [5] = assay: IDP rescue assay, P. falciparum NF54; type: cell-based; conditions: Plasmodium falciparum
Protocol: as §2

[6] = Kinetic solubility determination; type: physicochemical; conditions: PBS buffer and 2% DMSO
Protocol: The desired compounds were sequentially diluted in DMSO in a 96-well plate. 3 μL of each well was transferred into another 96-well plate and mixed with 147 μL of PBS. Plates were shaken for 5 min at 600 rpm at room temperature (r.t.), and the absorbance at 620 nm was measured. Absorbance values were normalized by blank subtraction and plotted using GraphPad Prism 8.4.2 (GraphPad Software, San Diego, California, USA). Solubility (S) was determined based on the First X value of AUC function using a threshold of 0.005.

Hep G2 cells = assay: Hep G2 viability assay (counter screen); type: cell-based, human; conditions: Homo sapiens, HepG2, 48 h, cytotoxicity, 48 h
Protocol: HepG2 cells (2 × 10^5 cells per well) were seeded in 24-well, flat-bottomed plates. Culturing of cells, incubations, and OD measurements were performed as described previously with small modifications.[58] 24 h after seeding the cells, the incubation was started by the addition of compounds in a final DMSO concentration of 1%. The metabolic activity of the living cell mass was determined after 48 h. At least three independent measurements were performed for each compound. The IC50 values were determined during logarithmic growth using GraphPad Prism software. All experiments were performed at least in triplicate, and data reported represent the mean ± SD.

[7] = Metabolic stability in human liver S9 fraction; type: in vitro ADME; conditions: human, pooled liver S9 fraction, 1 μM compound
Protocol: For the evaluation of combined phase I and phase II metabolic stability, the compound (1 μM) was incubated with 1 mg/mL pooled liver S9 fraction (XenoTech), 2 mM NADPH, 1 mM UDPGA, 10 mM MgCl2, 5 mM GSH, and 0.1 mM PAPS at 37 °C for 0, 5, 15, 30, and 60 min. The metabolic stabilities of testosterone (1 μM), verapamil (1 μM), and propranolol (1 μM) were determined in parallel to confirm the enzymatic activity of the S9 fraction. The incubation was stopped by precipitation of S9 enzymes with two volumes of cold acetonitrile containing internal standard (150 nM diphenhydramine). Samples were stored on ice for 10 min, and precipitated protein was removed by centrifugation (15 min, 4 °C, 4000 rpm). The concentration of the remaining test compound at the different time points was analyzed by LC-MS/MS (TSQ Quantum Access MAX, Thermo Fisher, Dreieich, Germany) and used to determine half-life (t1/2).

[8] = 3D7, 3D7, method III (HRP2 assay), drc package of R, read-out: IC50 P. falciparum 3D7 (method III)
[9] = 3D7, table of compounds as SMILES with biological activity, strain not given, values match 3D7 method III, read-out: IC50

## NN=C(Cc1ccc(Cl)cc1)c1ccc(O)cc1O [compound 12]
P. falciparum 3D7 [1]
  IC50: 46 ± 3 µM
P. falciparum NF54 [2]
  IC50: 45 ± 7 µM
P. falciparum 3D7 [3]; [8]
  IC50: 16 µM
P. falciparum Dd2
  IC50: 14 ± 5 µM

## Cc1ccc(Nc2nc(-c3ccccn3)cs2)cc1C [compound 46, N-(3,4-Dimethylphenyl)-4-(pyridin-2-yl)thiazol-2-amine]
P. falciparum 3D7 [1]
  IC50: 2 µM
P. falciparum NF54 [2]
  IC50: 2 ± 1 µM
P. falciparum 3D7 [3]; [8]
  IC50: 2 ± 1 µM
P. falciparum 3D7 [3]; [9]
  IC50: 1.5 µM
P. falciparum Dd2
  IC50: 2 µM
P. falciparum 3D7 [4]; 3D7, 72 h, + IDP (125 μM)
  IC50: 2.8 µM
P. falciparum 3D7 [4]; 3D7, without IDP
  IC50: 2.3 ± 0.4 µM
P. falciparum NF54 [5]; NF54, 72 h, + IDP (125 μM)
  IC50: 1.2 µM
P. falciparum NF54 [5]; NF54, without IDP
  IC50: 2.1 ± 0.8 µM

## COc1cc(O)ccc1/C(Cc1ccc(N)cc1)=N/O [compound 4, (E)-2-(4-Aminophenyl)-1-(4-hydroxy-2-methoxyphenyl)ethan-1-one oxime]
P. falciparum 3D7 [3]; [8]
  IC50: > 111 µM
P. falciparum Dd2
  IC50: 94 ± 16 µM
[6]
  Max. solubility: 202.6 ± 1.6 µM
[6]; PBS with 2% DMSO, aqueous buffer, kinetic from dmso stock, read-out: Max. solubility
  solubility at 5 min: ~200 µM (≈ 54.5 µg/mL)

## Cc1nc(N)sc1-c1csc(Nc2ccc(Cl)cn2)n1 [compound 47]
P. falciparum 3D7 [1]
  IC50: 2 ± 1 µM
P. falciparum NF54 [2]
  IC50: 2 µM
P. falciparum 3D7 [3]; [8]
  IC50: 1 µM
P. falciparum Dd2
  IC50: 2 µM
P. falciparum 3D7 [4]; 3D7, 72 h, + IDP (125 μM)
  IC50: 2.2 µM
P. falciparum 3D7 [4]; 3D7, without IDP
  IC50: 2 ± 0.7 µM
P. falciparum NF54 [5]; NF54, 72 h, + IDP (125 μM)
  IC50: 1.2 µM
P. falciparum NF54 [5]; NF54, without IDP
  IC50: 1.6 ± 0.3 µM

## Nc1ccc(C(Cc2ccc(Cl)cc2)=NO)c(O)c1 [compound 10]
P. falciparum 3D7 [3]; [8]
  IC50: 38 ± 11 µM
P. falciparum 3D7 [3]; [9]
  IC50: 38.2 µM
P. falciparum Dd2
  IC50: 24 ± 4 µM
Hep G2 cells
  IC50: 50 to 100 µM
[7]
  half-life at 1 μM: 56 ± 0.4 min

## O=CN(O)CCCP(=O)(O)O [FSM, fosmidomycin, reference compound]
P. falciparum 3D7 [1]
  IC50: 0.9 ± 0.2 µM
P. falciparum NF54 [2]
  IC50: 0.7 ± 0.3 µM
P. falciparum 3D7 [4]; 3D7, 72 h, + IDP (125 μM)
  IC50: 37.4 ± 18.2 µM
P. falciparum 3D7 [4]; 3D7, without IDP
  IC50: 0.9 ± 0.4 µM
P. falciparum NF54 [5]; NF54, 72 h, + IDP (125 μM)
  IC50: 7.8 ± 0.3 µM
P. falciparum NF54 [5]; NF54, without IDP
  IC50: 0.9 ± 0.5 µM
